Experimental data from patent publication US11795189B2, “Formulation and method for spray-drying D-tagatose” (University of Kentucky Research Foundation, priority 2020, dated 2023).

Assays:
[1] = D-tagatose fully dissolved in water:organic dual solvent systems; format: physicochemical
Source text: The solvent used in the spray-drying feed formulation may be substantially any solvent suitable for the intended purpose including, for example, an appropriate co-solvent system. That co-solvent system may include acetone and water. The acetone and water may be provided at a ratio of between 1:1 and 4.6:1 (v/v %). In other embodiments, the co-solvent system may include methanol and water, propanol and water or ethanol and water.

[2] = D-tagatose dissolved in tri-solvent systems; format: physicochemical
Source text: Tri-solvent systems may also be used. One example of a tri-solvent system is ethanol, methanol and water.
Table 2: Summarizes tri-solvent systems that have shown to dissolve D-tagatose.

[3] = Glass transition temperature (Tg) by DSC; format: physicochemical
Experimental: Glass transition temperatures were determined using DSC for physical mixtures of D-tagatose and respective excipients subjected to melt quenching. Samples were prepared by geometrically mixing D-tagatose and excipients at a 1:1 (w/w) ratio. Once mixed, the samples were then rigorously ground using a mortar and pestle before being hermetically sealed within a T-Zero pan. Once sealed, the samples were transferred to a Q2000 DSC (TA Instruments, New Castle, DE). All samples were run with the DSC operating in the modulation mode with a “pinhole” lid to better capture the sample's behavior instead of any residual vapors. The modulating method was first equilibrated at −20° C. before heating at 10° C./min to 140° C. […] Once −10° C. was reached, samples were set to modulate at ±0.5° C. every 60 s immediately and held for 5 min before ramping 1° C./min back to 140° C. Reported Tg values were averages of triplicate samples, each determined from the midpoint of the glass transition step change from the resultant reversible heat flow curves vs. temperature thermograms. All DSC mass samples were between 1 and 5 mg.

[4] = crystalline D-tagatose, at 20° C.; cited from earlier work
[5] = oral ingestion; cited from earlier work
type 2 diabetes = settings: cited from earlier work
[6] = granted 2004; such low toxicity that no daily intake monitoring is needed; cited from earlier work

Question: Which results are given for `O=C(CO)[C@@H](O)[C@@H](O)[C@H](O)CO` [D-tagatose, D-(−)-tagatose]?
Answer: amount of D-tagatose dissolved ([1]; 2-Propanol:Water 5 mL:3.6 mL): ~1 gram; w % Tagatose (fully dissolved) ([1]; 2-Propanol:water, 45.6 w % water, 43.3 w % organic): 11.1 w %; amount of D-tagatose dissolved ([1]; Acetone:Water 5 mL:4.1 mL): ~1 gram; w % Tagatose (fully dissolved) ([1]; Acetone:water, 46.0 w % water, 42.7 w % organic): 11.3 w %; amount of D-tagatose dissolved ([1]; Ethanol:Water 5 mL:4.2 mL): ~1 gram; w % Tagatose (fully dissolved) ([1]; Ethanol:water, 45.9 w % water, 42.5 w % organic): 11.6 w %; amount of D-tagatose dissolved ([1]; Methanol:Water 5 mL:3.1 mL): ~1 gram; w % Tagatose (fully dissolved) ([1]; Methanol:water, 46.0 w % water, 42.7 w % organic): 11.2 w %; amount of D-tagatose dissolved ([2]; 2-Propanol:Acetone:Water 1 mL:5 mL:3.8 mL, sonicate while adding water): ~1 gram; amount of D-tagatose dissolved ([2]; 2-Propanol:Acetone:Water 5 mL:1 mL:3.6 mL, sonicate while adding water): ~1 gram; amount of D-tagatose dissolved ([2]; 2-Propanol:Ethanol:Water 1 mL:5 mL:4.2 mL, sonicate while adding water): ~1 gram; amount of D-tagatose dissolved ([2]; 2-Propanol:Ethanol:Water 5 mL:1 mL:4.6 mL, sonicate while adding water): ~1 gram; w % Tagatose (dissolved) ([2]; Ethanol 1 mL + 5 mL methanol + water, 37.324 w % water, 51.789 w % organic): 10.887 w %; w % Tagatose (dissolved) ([2]; Ethanol 2 mL + 5 mL methanol + water, 36.185 w % water, 53.816 w % organic): 9.999 w %; w % Tagatose (dissolved) ([2]; Ethanol 3 mL + 5 mL methanol + water, 32.436 w % water, 58.272 w % organic): 9.292 w %; w % Tagatose (dissolved) ([2]; Methanol 1 mL + 5 mL ethanol + water, 39.808 w % water, 49.3620231 w % organic): 10.830 w %; w % Tagatose (dissolved) ([2]; Methanol 2 mL + 5 mL ethanol + water, 37.459 w % water, 52.8123019 w % organic): 9.729 w %; w % Tagatose (dissolved) ([2]; Methanol 3 mL + 5 mL ethanol + water, 35.506 w % water, 55.7893055 w % organic): 8.704 w %; amount of D-tagatose dissolved ([2]; Methanol:Ethanol:Water 5 mL:1 mL:3.4 mL): ~1 gram; dry Tg (glass transition temperature) [3]: 18.92 °C; aqueous solubility [4]: 160 g/100 mL; fraction of orally ingested dose fully metabolized [5]: 20%; effect on HbA1c (type 2 diabetes): lower; effect on LDL (type 2 diabetes): lower; effect on fasting blood glucose levels (type 2 diabetes): lower; effect on total cholesterol (type 2 diabetes): lower; safe daily intake [6]: not specified
